Source: patent EP0476645B1, “Calcium uptake inhibitors” (MERRELL DOW PHARMACEUTICALS INC., priority 1990, dated 1992)

Test system: Rat PMNL
Experiment: Measurement of intracellular calcium in fMLP-stimulated PMNL preloaded with Fura-2
Type: cell-based
Details: fMLP stimulus, preincubation with compound 15 minutes at 37°C, concentrations in figure 1
Protocol: Rat PMNL were obtained from exudates resulting from peritoneal injection of 6 mL of 8% sodium caseinate. Eighteen hours after injection rats were killed by carbon dioxide inhalation and the peritoneal cavity lavaged with Hank's balanced salt solution (HBSS). After concentration of the PMNL by centrifugation, contaminating erythrocytes were removed by hypotonic lysis. The PMNL were then washed twice by centrifugation (400 x g for 10 minutes) and resuspended in HBSS. Cell viability was greater than 90% by Trypan Blue exclusion and greater than 90% of the cells were PMNL by Wright-Giemsa stain.
Intracellular calcium levels were obtained using Fura-2 as fluorescent indicator (Grynkiewicz et al., 1985). Fura-2 was loaded into PMNL as the acetoxymethyl ester (Fura-2/AM) using the method of Korchak et al., (1988). Specifically, 1 X 10⁸ PMNL/mL were incubated in HBSS with 10 µM Fura-2/AM for 10 minutes at 37°C. The cells suspension was then diluted ten fold with HBSS and further incubated for another 20 minutes. The cells were then centrifuged (400 x g for 8 minutes at 25°C) and the PMNL (1 x 10⁷ cells/mL) resuspended in HBSS containing 1% bovine serum albumin. Cells were stored at room temperature and used within 3 hours.
Intracellular calcium level determinations were made using a dual wavelength spectrofluorometer (Photon Technology International, New Brunswick, NJ). Two mL of PMNL suspension (1 x 10⁷ cells/mL) were stirred magnetically at 37°C. Cells were preincubated with the compounds for 15 minutes at 37°C prior to activation. Where compounds were dissolved in DMSO and added directly, the DMSO never exceeded 0.3% in the final cell suspension. Total change in volume with addition of compounds or vehicle and stimuli never exceeded 3%. Intracellular calcium concentrations were calibrated by setting a maximum calcium level in the cells with the addition of 7 µM ionomycin to PMNL in HBSS containing 1% BSA. This was followed by treatment with 20 mM EGTA for 1 hour to obtain a minimum calcium level. […]

## CN(C)c1ccc(C(=O)C#Cc2ccncn2)cc1 [MDL 102,387, 1-(4-dimethylaminophenyl)-3-(4-pyrimidinyl)-2-propyne-1-one]
  suppression of the second wave of intracellular calcium changes: selective concentration-dependent suppression
